Results taken from the supplement of paper PMC9103864.

Tests used:
[1] = tested on: BMSC (primary human bone marrow mesenchymal stromal cells); test: drug sensitivity score (DSS); higher = more sensitive
[2] = tested on: BMSC (primary human bone marrow mesenchymal stromal cells); test: absolute EC50 for viability; higher = less sensitive

| Structure (SMILES) | drug sensitivity score [1] | absolute EC50 for viability [2] [µM] |
| --- | --- | --- |
| COc1cccc(-c2ccc(NC(=O)C3=C(C(=O)O)CCC3)c(F)c2)c1 [Vidofludimus] | 0 | > 10 |
| CC(=O)c1c(C)c2cnc(Nc3ccc(N4CCNCC4)cn3)nc2n(C2CCCC2)c1=O [Palbociclib] | 2.3 | > 10 |
| Cn1cc(C2=C(c3cn(C4CCN(Cc5ccccn5)CC4)c4ccccc34)C(=O)NC2=O)c2ccccc21 [Enzastaurin] | 0 | > 10 |
| CN1CCN(C2CCC(n3cc(-c4ccc(Oc5ccccc5)cc4)c4c(N)ncnc43)CC2)CC1 (configuration not stated) | 11.1 | 1 |
| CC[C@@](C)(Nc1ccnc(-c2c[nH]c3ncccc23)n1)C(=O)NCC(F)(F)F [Decernotinib] | 0.4 | > 10 |
| Cc1sc2c(c1C)C(c1ccc(Cl)cc1)=N[C@@H](CC(=O)Nc1ccc(O)cc1)c1nnc(C)n1-2 [Birabresib] | 4.9 | > 10 |
| O[C@H]1CC[C@H](Nc2ncc3nc(Nc4c(F)cc(F)cc4F)n([C@H]4CCOC4)c3n2)CC1 [Tanzisertib] | 0.3 | > 10 |
| Cn1cc(C2=Nc3cc(NC(=O)C(N)C4CCCCC4)cc4c3C2=CNNC4=O)cn1 (configuration not stated) | 9.2 | 1.43 |
| Cc1ccc(Nc2nccc(N(C)c3ccc4c(C)n(C)nc4c3)n2)cc1S(N)(=O)=O [Pazopanib] | 2.1 | > 10 |
| CCCC(CCC)C(=O)O [Valproic acid] | 0 | > 1000 |
| CCN(CC)C(=S)SSC(=S)N(CC)CC [Disulfiram] | 0 | > 50 |
| CC1(C)CCC(CN2CCN(c3ccc(C(=O)NS(=O)(=O)c4ccc(NCC5CCOCC5)c([N+](=O)[O-])c4)c(Oc4cnc5[nH]ccc5c4)c3)CC2)=C(c2ccc(Cl)cc2)C1 [Venetoclax] | 0 | > 1 |
| O=C(Nc1nc2cccc(-c3ccc(CN4CCS(=O)(=O)CC4)cc3)n2n1)C1CC1 [Filgotinib] | 2.3 | > 10 |
| C[C@@H]1COCCN1c1cc(C2([S@](C)(=N)=O)CC2)nc(-c2cc[nH]c3nccc2-3)n1 [AZD6738] | 4.6 | > 25 |
| C=CC(=O)Nc1cccc(Nc2nc(Nc3ccc(N4CCN(C(C)=O)CC4)cc3OC)ncc2C(F)(F)F)c1 [Rociletinib] | 5.8 | 2.86 |
| CC(C)(O)CC(=O)NCCn1ccc2ncnc(Nc3ccc(Oc4cccc(C(F)(F)F)c4)c(Cl)c3)c21 [TAK-285] | 0.4 | > 2.5 |
| CNC(=O)c1cccc(-c2ccc3c(N4CCOC[C@@H]4C)nc(N4CCOC[C@@H]4C)nc3n2)c1 [Vistusertib] | 13.7 | 0.488 |
| CN[C@@H](C)C(=O)N[C@H](C(=O)N1CCC[C@H]1c1nc(C(=O)c2ccc(F)cc2)cs1)C1CCCCC1 [NVP-LCL161] | 0 | > 25 |
| COc1cc2c(Oc3ccc(NC(=O)C4(C(=O)Nc5ccc(F)cc5)CC4)cc3F)ccnc2cc1OCCCN1CCOCC1 [Foretinib] | 6 | 0.46 |

| Structure (SMILES) | drug sensitivity score [1] | absolute EC50 for viability [2] [µM] |
| --- | --- | --- |
| COC(=O)c1ccc2c(C(=Nc3ccc(N(C)C(=O)CN4CCN(C)CC4)cc3)c3ccccc3)c(O)[nH]c2c1 [Nintedanib] | 9.7 | 2.56 |
| COCC1(CO)C(=O)C2CCN1CC2 (configuration not stated) [APR-246] | 0 | > 10 |
| CC(C)Cn1cnc2c(N)nc3ccccc3c21 [Imiquimod] | 0 | > 2.5 |
| CC(C)C(=O)Nc1ccc([N+](=O)[O-])c(C(F)(F)F)c1 [Flutamide] | 0 | > 10 |
| Nc1nc(NC2CC2)cc(-c2cccc(Cl)c2Cl)n1 [TH588] | 0 | > 25 |
| CN1CCC(CNc2ccc3ncc(-c4cccc(OC(F)(F)F)c4)n3n2)CC1 [SGI-1776] | 9.6 | 1.4 |
| O=c1[nH]c(C2CCCN2)nc2c1oc1ccc(Cl)cc12 (configuration not stated) | 0.6 | > 10 |
| Clc1ccc(C(c2ccccc2Cl)C(Cl)Cl)cc1 (configuration not stated) [Mitotane] | 0 | > 10 |
| Clc1ccccc1C(c1ccccc1)(c1ccccc1)n1cccn1 [TRAM-34] | 0 | > 1 |
| CC[C@]1(O)C[C@@H]2CN(CCc3c([nH]c4ccccc34)[C@@](C(=O)OC)(c3cc4c(cc3OC)N(C)[C@H]3[C@@](O)(C(=O)OC)[C@H](OC(C)=O)[C@]5(CC)C=CCN6CC[C@]43[C@@H]65)C2)C1 [Vinblastine] | 1.9 | > 1 |
| CCN(CC)CCCC(C)Nc1ccnc2cc(Cl)ccc12 (configuration not stated) [Chloroquine] | 10.3 | 12.8 |
| O=C(Nc1cccc(NC(=O)c2cccc(O)c2O)c1)c1cccc(O)c1O [MST-312] | 9.7 | 1.22 |
| CCNCCS(=O)(=O)NC[C@@]1(c2ccccc2)SC(NC(=O)C(C)(C)C)=NN1C(=O)C(C)(C)C [Litronesib] | 0 | > 1 |
| CN1CCN(C2CCN(C(=O)Nc3cc(Oc4ccc(NC(=O)C5(C(=O)Nc6ccc(F)cc6)CC5)c(F)c4)ccn3)CC2)CC1 [Golvatinib] | 2.7 | > 2.5 |
| CO[C@H]1C[C@@H]2CC[C@@H](C)[C@@](O)(O2)C(=O)C(=O)N2CCCC[C@H]2C(=O)O[C@H]([C@H](C)C[C@@H]2CC[C@@H](OP(C)(C)=O)[C@H](OC)C2)CC(=O)[C@H](C)/C=C(\C)[C@@H](O)[C@@H](OC)C(=O)[C@H](C)C[C@H](C)/C=C/C=C/C=C/1C [Ridaforolimus] | 7.6 | > 0.1 |
| O=C(Nc1cc(Oc2cc(F)c(NC(=O)C3(C(=O)Nc4ccc(F)cc4)CC3)cc2F)ccn1)C1CC1 [Altiratinib] | 2.9 | > 10 |
| CC[C@@H]1C(=O)N(C)c2cnc(Nc3ccc(C(=O)N[C@H]4CC[C@H](N5CCN(CC6CC6)CC5)CC4)cc3OC)nc2N1C(C)C [Volasertib] | 1.5 | > 1 |
| CO[C@@H]1[C@H](N(C)C(=O)c2ccccc2)C[C@H]2O[C@]1(C)n1c3ccccc3c3c4c(c5c6ccccc6n2c5c31)C(=O)NC4 [Midostaurin] | 7.5 | 1.65 |
| CN1CCN(CCOc2cc(OC3CCOCC3)c3c(Nc4c(Cl)ccc5c4OCO5)ncnc3c2)CC1 [Saracatinib] | 5 | > 10 |

| Structure (SMILES) | drug sensitivity score [1] | absolute EC50 for viability [2] [µM] |
| --- | --- | --- |
| C[C@H](Nc1ncnc2[nH]cnc12)c1cc2ccc(F)cc2nc1-c1ccccn1 [AMG319] | 0.1 | > 1 |
| O=C1c2c(O)ccc(O)c2C(=O)c2c(NCCNCCO)ccc(NCCNCCO)c21 [Mitoxantrone] | 8 | 0.185 |
| O=C(/C=C\n1cnc(-c2cc(C(F)(F)F)cc(C(F)(F)F)c2)n1)NNc1cnccn1 [Selinexor] | 3.1 | > 10 |
| CN1CC[C@H](c2c(O)cc(O)c3c(=O)cc(-c4ccccc4Cl)oc23)[C@H](O)C1 [Alvocidib] | 10.8 | 0.739 |
| Cc1sc2c(c1C)C(c1ccc(Cl)cc1)=N[C@@H](CC(=O)NCCCCNC(=O)COc1cccc3c1C(=O)N(C1CCC(=O)NC1=O)C3=O)c1nnc(C)n1-2 (some centres not stated) [dBET1] | 8.2 | 2.05 |
| CC(C)C[C@H](NC(=O)[C@@H](COC(C)(C)C)NC(=O)[C@H](Cc1ccc(O)cc1)NC(=O)[C@H](CO)NC(=O)[C@H](Cc1c[nH]c2ccccc12)NC(=O)[C@H](Cc1cnc[nH]1)NC(=O)[C@@H]1CCC(=O)N1)C(=O)N[C@@H](CCCNC(=N)N)C(=O)N1CCC[C@H]1C(=O)NNC(N)=O [Goserelin] | 0 | > 10 |
| Nc1cccc2c1CN(C1CCC(=O)NC1=O)C2=O (configuration not stated) [Lenalidomide] | 0 | > 100 |
| CNC(=O)c1nn(C)c2c1C(C)(C)Cc1cnc(Nc3ccc(N4CCN(C)CC4)cc3)nc1-2 [Milciclib] | 10.1 | > 10 |
| Cc1ccc(=O)n(-c2ccccc2)c1 [Pirfenidone] | 0 | > 10 |
| COC(=O)c1ccc([C@H]2c3[nH]c4ccccc4c3C[C@H](C(=O)OC)N2C(=O)CCl)cc1 [RSL3] | 0 | > 10 |
| Cc1nc(-c2cn3c(n2)-c2ccc(-c4cnn(C(C)(C)C(N)=O)c4)cc2OCC3)n(C(C)C)n1 [Taselisib] | 8.9 | > 1 |
| CC(C)[C@H]1C(=O)N[C@@H](CCCNC(=N)N)C(=O)NCC(=O)N[C@@H](CC(=O)O)C(=O)N[C@H](Cc2ccccc2)C(=O)N1C [Cilengitide] | 1.4 | > 10 |
| O=S(=O)(c1cccc2c(O)nccc12)N1CCCNCC1 [Hydroxyfasudil] | 1 | > 19 |
| Cc1ncc(Cl)cc1NCc1ccc(C(=O)N[C@@H](CC2CCCC2)C(=O)NC2CC2)s1 | 0 | > 5 |
| Cc1cnc(Nc2ccc(OCCN3CCCC3)cc2)nc1Nc1cccc(S(=O)(=O)NC(C)(C)C)c1 [Fedratinib] | 9.3 | 1.47 |
| CCS(=O)(=O)Nc1ccc(Oc2ccc(F)cc2F)c(-c2cn(C)c(=O)c3[nH]ccc23)c1 [Mivebresib] | 13 | 2.71 |
| CC(C)NC(=O)COc1cccc(-c2nc(Nc3ccc4[nH]ncc4c3)c3ccccc3n2)c1 [KD025] | 0 | > 5 |
| CC[C@]12C=CCN3CC[C@@]4(c5cc([C@@]6(C(=O)OC)C[C@@H]7C[C@@H](C(C)(F)F)CN(Cc8c6[nH]c6ccccc86)C7)c(OC)cc5N(C)[C@H]4[C@@](O)(C(=O)OC)[C@@H]1OC(C)=O)[C@@H]32 [Vinflunine] | 2.8 | > 1 |
